Measurements reported in patent publication US8785388B2, “TAT-BH3 methods for treating arthritis” (Saint Louis University, priority 2007, dated 2014).
Square brackets hold non-standard residues; d marks the D form. Peptide text beside a SMILES is read from it. Orn = NCCC[C@H](N)C(=O)O

What was measured:
[1] = system: K/B×N serum transfer-induced arthritis; assay: Histopathological scoring of ankle sections (H&E, safranin O/methyl green); type: in vivo, mice
Procedure: Paraffin embedded ankle or liver sections were stained with hematoxylin and eosin (H&E), Safranin O and methyl green. Histopathological scoring was performed and ankle sections were evaluated by examining at least 3 sections/ankle and 3 fields/section at 400× magnification. H&E ankle sections were scored on a 0-5 scale for inflammation, with 0=normal, 1=minimal infiltration, 2=mild infiltration, 3=moderate infiltration, […], mad 5=severe infiltration. Bone erosion was scored on a 0-5 scale by viewing H&E ankle sections, with 0=no or normal bone resorption, 1=small areas of resorption, 2=more numerous areas of resorption, 3=obvious resorption, 4=full thickness defects in the bone without distortion of the profile, 5=full thickness defects in the bone with distortion of the profile. H&E ankle stained sections were scored on a 0-5 scale for pannus formation, with 0=no pannus formation, 1=minimal pannus formation, 2=mild pannus formation, 3=moderate pannus formation, 4=marked pannus formation, and 5=severe pannus formation. H&E and Safranin 0 and methyl green sections were scored on a 0-5 scale for cartilage damage, with 0=no damage, 1-2=superficial cartilage destruction, 3-4=cartilage destruction to middle zone, 5=cartilage destruction to tide mark. Polymorphonuclear (PMN) leukocyte infiltration: 0=no PMNs, 1=rare scattered PMNs, 2=more frequent scattered PMNs, 3=small clusters of PMNs, 4=larger clusters of PMNs, mad 5=sheets of PMNs (abscess). Histopathological scoring was conducted on an Olympus BX40 microscope (1000×). Photographs were taken on a Nikon microscope equipped with the Nikon digital camera DMX 1200.
To accurately assess the degree of inflammation and destruction of cartilage and bone, ankle sections were examined using a histopathological scoring system on hematoxylin and eosin (H& E) or safranin O-methyl green stained ankle sections.

[2] = molecular target: Mcl-1 (Homo sapiens, UniProt Q07820); assay: Affinity for Mcl-1; type: binding; conditions: statement without data
Sequence of Mcl-1 (Q07820 whole entry, species assumed): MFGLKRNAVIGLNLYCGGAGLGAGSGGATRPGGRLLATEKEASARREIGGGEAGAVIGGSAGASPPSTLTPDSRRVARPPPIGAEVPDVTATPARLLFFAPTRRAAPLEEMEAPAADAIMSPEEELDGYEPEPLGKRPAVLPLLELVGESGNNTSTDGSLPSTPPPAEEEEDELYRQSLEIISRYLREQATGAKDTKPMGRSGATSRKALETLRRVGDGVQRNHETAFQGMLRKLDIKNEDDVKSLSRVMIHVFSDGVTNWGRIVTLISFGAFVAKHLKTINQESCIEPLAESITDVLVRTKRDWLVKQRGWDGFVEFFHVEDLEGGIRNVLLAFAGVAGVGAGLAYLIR

[3] = system: peripheral blood cells; assay: Peripheral blood cell counts (flow cytometry, hematology analyzer); type: in vivo, mice
Procedure: Peripheral blood and bone marrow were isolated from mice following euthanasia. Total leukocyte numbers were determined using an automated hematology analyzer ABX Pentra 60 (Diamond Diagnostics, Inc, Holliston, Mass.). The red blood cells in peripheral blood were lysed and the remaining cells were fixed with BD FACS lysing solution (BD Biosciences, Pharmingen) following incubation with antibodies. Bone marrow cells were isolated by flushing Dulbecco's Modified Eagle Medium (DMEM) (Gibco, Grand Island, N.Y.) through the tibias and red blood cells were lysed with BD PharM Lyse (BD Biosciences, Pharmingen) prior to incubation with antibodies. Cells with incubated with Fc Block (BD Biosciences, Pharmingen) then stained with fluorochrome conjugated antibodies to CD45, CD11b, Gr-1, CD62L, Ly-6C, Ly-6G, CD31 (BD Biosciences, Pharmingen) or isotype control antibodies for 30 minutes. Cells were acquired on a BD LSRII (BD Biosciences, Pharmingen) using Diva Software at the Saint Louis University Core Flow Cytometry Facility. All analysis was performed using FlowJo software (Tree Star Inc.).
Peripheral blood was isolated by cardiac sticks. Cells were blocked for 10 minutes with Fc block and then stained with anti-CD45, anti-CD19, anti-CD3, anti-CD4, anti-CDS, anti-CD11b, anti-Gr-1, and anti-CD62L antibodies for 30 minutes. Platelets and RBCs were determined on an automated hematology analyzer ABX Pentra 60. Following incubation with antibodies red blood cells were lysed and cells were fixed with Becton Dickenson FACS lysing solution.

[4] = system: peripheral blood cells; assay: as above; type: in vivo, mice; conditions: as compared to TAT-inactive BH3 and saline
[5] = system: macrophages in arthritic joints; assay: Macrophage numbers in ankle sections stained for F4/80 antigen; type: in vivo, mice
From the text: FIG. 4A is representative photomicrograph of ankle sections stained for F4/80 antigen from saline- and BH3-peptide treated mice.
TAT-BH3 peptides treatment reduces the numbers of myeloid cells in arthritic joints. Neutrophils and macrophages are required for the development of K/B×N serum transfer induced arthritis 40-42. To this end, the numbers of polymorphonuclear cell and macrophages in saline and BH3 peptide arthritic mice were quantified. […] The milieu of the RA joint is crucial for the initiation and the perpetuation of inflammatory arthritis. Previous studies have shown that mice lacking Bim display increased levels of pro-inflammatory factors in the joint that is associated with increased numbers of neutrophils and macrophages and more articular destruction.

[6] = as compared to saline or TAT-inactive BH3
[7] = as compared to TAT-inactive BH3
[8] = as compared to TAT-inactive BH3 and saline
[9] = peripheral blood, hematology analyzer, mean ± standard error
[10] = peripheral blood, mean ± standard error

SMILES: CC[C@H](C)[C@H](NC(=O)[C@H](CCCNC(=N)N)NC(=O)[C@H](CCCNC(=N)N)NC(=O)[C@H](CC(C)C)NC(=O)[C@H](CCC(=O)O)NC(=O)[C@H](CCC(N)=O)NC(=O)[C@H](C)NC(=O)[C@@H](NC(=O)[C@H](Cc1c[nH]c2ccccc12)NC(=O)[C@@H](NC(=O)[C@H](CCC(=O)O)NC(=O)[C@H](CCCNC(=N)N)NC(=O)[C@H](CCCNC(=N)N)NC(=O)[C@H](CCCNC(=N)N)NC(=O)[C@H](CCCN)NC(=O)[C@H](CCCNC(=N)N)NC(=O)[C@H](CCCNC(=N)N)NC(=O)[C@H](CCCCN)NC(=O)[C@H](CCCCN)NC(=O)[C@H](CCCNC(=N)N)NC(C)=O)[C@@H](C)CC)[C@@H](C)CC)C(=O)NCC(=O)N[C@@H](CC(=O)O)C(=O)N[C@@H](CCC(=O)O)C(=O)N[C@@H](Cc1ccccc1)C(=O)N[C@@H](CC(N)=O)C(=O)N[C@@H](C)C(=O)N[C@@H](Cc1ccc(O)cc1)C(=O)N[C@@H](Cc1ccc(O)cc1)C(=O)N[C@@H](C)C(=O)N[C@@H](CCCNC(=N)N)C(=O)O [TAT-BH3] (Ac-RKKRR[Orn]RRREIWIAQELRRIGDEFNAYYAR-OH)
- reduction in PMN score ([1]; as compared to TAT-inactive BH3 or saline): 69%
- decrease in bone erosion score [1, 6]: 71%
- reduction in inflammation [1, 6]: 72%
- suppression of pannus formation [1, 6]: 79%
- affinity for Mcl-1 [2]: high affinity
- decrease in platelets [3, 7]: 29%
- number of circulating leukocytes [3, 8]: did not reduce
- number of red blood cells [3, 8]: did not reduce
- decrease in numbers of neutrophils in peripheral blood ([3]; as compared to TAT-inactive peptide and saline): 40%
- decrease in platelets ([3]; as compared to saline): 23%
- effect on platelet counts ([3]; general statement): minimal effect
- Platelets [3, 9]: 930.3 ± 55.32 (1E6)
- RBCs [3, 9]: 9.60 ± 0.42 (1E6)
- B-cells+ [3, 10]: 2.51 ± 0.11 (1E6)
- CD4+ T-cells [3, 10]: 1.25 ± 0.06 (1E6)
- CD8+ T-cells [3, 10]: 0.86 ± 0.04 (1E6)
- Inflammatory monocytes [3, 10]: 0.26 ± 0.03 (1E6)
- N-K-cells [3, 10]: 0.23 ± 0.02 (1E6)
- Resident Monocytes [3, 10]: 0.21 ± 0.02″ (1E6)
- T-cells [3, 10]: 2.20 ± 0.10 (1E6)
- Total Leukocytes [3, 10]: 6.2 ± 0.22 (1E6)
- number of splenocytes [4]: did not reduce
- average number of macrophages in the synovial lining [5, 7]: no statistical difference
- decrease in numbers of macrophages within the pannus region [5, 7]: 68%
- decrease in numbers of macrophages within the pannus region ([5]; as compared to saline): 77%
